Source: publication PMC8292346, “Dysfunction of the key ferroptosis-surveilling systems hypersensitizes mice to tubular necrosis during acute kidney injury” (Nature Communications, 2021)
“And” between values parts separate entries of the source, which are not always exact repeats. Identical values can stand only once.

Tests used:
NIH3T3 cells = experiment: TZ-induced necroptosis, 7-AAD/annexin V flow cytometry; assay type: cell-based, murine; conditions: NIH3T3, TZ 16 h
Description: To induce necroptosis in a human cell line, HT29 cells were stimulated at the indicated time points with 20 ng/ml human TNFα (Biolegend), 1 μM SMAC-mimetics (Birinapant, Chemietek), and 20 μM zVAD-fmk (Selleckchem, herein referred to as zVAD). For the induction of necroptosis in NIH3T3 cells, cells were incubated with 20 ng/ml TNF-α and 20 μM zVAD for indicated time points. […] Cells were seeded in six-well plates or petri dishes. […] After indicated time points, cells were collected and prepared for flow cytometry, immunoblotting, and/or LDH release assays.
Cells were harvested and the pellets were washed twice in PBS and stained with 5 μl of 7-AAD (BD Biosciences) and 5 μl of annexin-V-FITC (BD Biosciences) added to 100 μl annexin-V binding buffer (BD Biosciences). After 15 min, cells were recorded on the LSRII with the FACS Diva 6.1.1 software (BD Biosciences) and subsequently analyzed with the FlowJo v10 software (Tree Star).

C57BL/6N mice = experiment: Acute oxalate nephropathy (CaOx-induced AKI); assay type: in vivo, mouse
Description: C57BL/6N mice were procured from Charles River Laboratories (Sulzfeld, Germany) and co-housed in groups of four in filter top cages with unlimited access to food and water. Cages, nestlets, food, and water were sterilized by autoclaving before use. Mice received a single intraperitoneal (i.p.) injection of 100 mg/kg sodium oxalate (Santa Cruz Biotechnology) and 3% sodium oxalate in drinking water and kidneys were harvested after 24 h. […] Blood and kidneys were collected at sacrifice by cervical dislocation. The middle section of each kidney was fixed for 24 h in formalin to be embedded in paraffin for histological analysis. Intrarenal crystal precipitations were quantified by Pizzolato staining. The experimental procedure was approved by the Regierung von Oberbayern, München, Germany (ROB-55.2-2532.Vet_02-18-127).
The tubular injury was scored by detecting the percentage of necrotic structures, dilated tubules, casts and cellular infiltrates per HPF. To do so a grid with a raster size of 2.5% of the total image area was imposed on top of each image and the number of squares covering either of the histopathological features was counted individually or as a composite (summary score). Pizzolato’s staining visualized calcium oxalate crystals and crystal deposit formation in the kidney was evaluated the following: no deposits = 0 point; crystals in papillary tip = 1 point; crystals in cortical medullary junction = 2 points; crystals in cortex = 3 points.
A TUNEL kit (Cell death detection kit, Roche) was used to quantify the number of cells with DNA strand breaks per HPF. The green fluorescent area was measured and the number of stained cells per slide was counted.

α1A(h) = α1A(h) (Homo sapiens, UniProt P35348); experiment: Off-target radioligand binding screen; conditions: read-out: α1A(h) ($): inhibition of radioligand binding
D1(h) = D1(h) (Homo sapiens, UniProt P21728); experiment: Off-target radioligand binding screen; conditions: read-out: D1(h) ($): inhibition of radioligand binding
H2(h) = H2(h) (Homo sapiens, UniProt P25021); experiment: Off-target radioligand binding screen; conditions: read-out: H2(h) ($): inhibition of radioligand binding
MAO-A = MAO-A (Rattus norvegicus, UniProt P21396); experiment: Off-target radioligand binding screen; conditions: read-out: MAO-A ($): inhibition of radioligand binding
M1(h) = M1(h) (Homo sapiens, UniProt P11229); experiment: Off-target radioligand binding screen; conditions: read-out: M1(h) ($): inhibition of radioligand binding
M3(h) = M3(h) (Homo sapiens, UniProt P20309); experiment: Off-target radioligand binding screen; conditions: read-out: M3(h) ($): inhibition of radioligand binding
5-HT1A(h) = 5-HT1A(h) (Homo sapiens, UniProt P08908); experiment: Off-target radioligand binding screen; conditions: read-out: 5-HT1A(h) (#): inhibition of radioligand binding
5-HT1B (h) = 5-HT1B (h) (Homo sapiens, UniProt P28222); experiment: Off-target radioligand binding screen; conditions: read-out: 5-HT1B (h) ($): inhibition of radioligand binding
5-HT2B(h) = 5-HT2B(h) (Homo sapiens, UniProt P41595); experiment: Off-target radioligand binding screen; conditions: read-out: 5-HT2B(h) (#): inhibition of radioligand binding
5-HT3(h) = 5-HT3(h) (Homo sapiens, UniProt P46098); experiment: Off-target radioligand binding screen; conditions: read-out: 5-HT3(h) ($): inhibition of radioligand binding
[1] = test system: Ca2+ channel (L, dihydropyridine site); experiment: Off-target radioligand binding screen; conditions: Nec-1f 10 µM
KV channel = experiment: Off-target radioligand binding screen; conditions: Nec-1f 10 µM
dopamine transporter(h) = dopamine transporter(h) (Homo sapiens, UniProt Q01959); experiment: Off-target radioligand binding screen; conditions: read-out: dopamine transporter(h) ($): inhibition of radioligand binding
[2] = 24 h after CaOx, 1.65 mg/kg Nec-1f, individual animals, 1.65 mg/kg

Sequence of 5-HT1A(h) (P08908 whole entry): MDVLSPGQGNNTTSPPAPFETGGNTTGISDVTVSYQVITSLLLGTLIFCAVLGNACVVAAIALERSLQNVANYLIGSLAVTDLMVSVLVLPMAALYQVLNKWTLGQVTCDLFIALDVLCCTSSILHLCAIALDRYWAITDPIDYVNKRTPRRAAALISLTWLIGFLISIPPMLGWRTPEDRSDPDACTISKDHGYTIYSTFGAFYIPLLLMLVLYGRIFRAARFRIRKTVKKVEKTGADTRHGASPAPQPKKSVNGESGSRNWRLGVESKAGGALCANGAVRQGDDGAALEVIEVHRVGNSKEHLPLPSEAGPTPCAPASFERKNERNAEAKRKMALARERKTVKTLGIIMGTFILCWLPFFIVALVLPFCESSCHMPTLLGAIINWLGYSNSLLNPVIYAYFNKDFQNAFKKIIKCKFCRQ
Sequence of H2(h) (P25021 whole entry): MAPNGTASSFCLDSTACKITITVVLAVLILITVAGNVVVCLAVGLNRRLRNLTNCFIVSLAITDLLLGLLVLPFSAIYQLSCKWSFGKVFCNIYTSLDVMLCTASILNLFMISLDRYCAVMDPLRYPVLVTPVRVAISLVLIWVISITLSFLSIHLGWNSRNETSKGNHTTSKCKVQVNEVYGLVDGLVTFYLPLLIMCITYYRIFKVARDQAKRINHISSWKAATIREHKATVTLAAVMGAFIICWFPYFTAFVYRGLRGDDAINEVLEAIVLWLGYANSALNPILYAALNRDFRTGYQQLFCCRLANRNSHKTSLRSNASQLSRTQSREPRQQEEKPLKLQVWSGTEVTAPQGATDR
Sequence of 5-HT1B (h) (P28222 whole entry): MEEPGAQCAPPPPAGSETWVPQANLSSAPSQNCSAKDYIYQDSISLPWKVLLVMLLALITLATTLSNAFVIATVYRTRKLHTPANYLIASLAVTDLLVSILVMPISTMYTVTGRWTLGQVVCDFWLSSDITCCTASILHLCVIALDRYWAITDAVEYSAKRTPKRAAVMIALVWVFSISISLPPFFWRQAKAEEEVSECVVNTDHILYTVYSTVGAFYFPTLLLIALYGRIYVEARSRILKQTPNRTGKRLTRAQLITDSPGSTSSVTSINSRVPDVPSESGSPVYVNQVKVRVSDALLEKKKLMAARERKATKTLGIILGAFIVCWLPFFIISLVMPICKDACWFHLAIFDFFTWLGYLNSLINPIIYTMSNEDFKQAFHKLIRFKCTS
Sequence of MAO-A (P21396 whole entry): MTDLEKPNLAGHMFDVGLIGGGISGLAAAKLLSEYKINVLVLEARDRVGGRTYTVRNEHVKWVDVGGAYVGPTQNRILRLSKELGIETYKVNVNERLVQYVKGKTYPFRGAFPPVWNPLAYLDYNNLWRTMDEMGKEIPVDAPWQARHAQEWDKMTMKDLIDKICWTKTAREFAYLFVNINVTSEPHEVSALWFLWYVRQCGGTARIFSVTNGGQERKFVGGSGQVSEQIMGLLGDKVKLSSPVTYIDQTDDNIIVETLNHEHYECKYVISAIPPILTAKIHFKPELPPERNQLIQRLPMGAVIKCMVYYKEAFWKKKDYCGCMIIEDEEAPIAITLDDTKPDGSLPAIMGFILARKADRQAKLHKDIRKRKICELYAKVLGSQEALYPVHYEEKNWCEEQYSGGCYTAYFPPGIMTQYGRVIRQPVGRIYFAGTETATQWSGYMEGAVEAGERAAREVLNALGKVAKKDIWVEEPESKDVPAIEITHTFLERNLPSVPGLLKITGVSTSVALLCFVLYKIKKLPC
Sequence of 5-HT2B(h) (P41595 whole entry): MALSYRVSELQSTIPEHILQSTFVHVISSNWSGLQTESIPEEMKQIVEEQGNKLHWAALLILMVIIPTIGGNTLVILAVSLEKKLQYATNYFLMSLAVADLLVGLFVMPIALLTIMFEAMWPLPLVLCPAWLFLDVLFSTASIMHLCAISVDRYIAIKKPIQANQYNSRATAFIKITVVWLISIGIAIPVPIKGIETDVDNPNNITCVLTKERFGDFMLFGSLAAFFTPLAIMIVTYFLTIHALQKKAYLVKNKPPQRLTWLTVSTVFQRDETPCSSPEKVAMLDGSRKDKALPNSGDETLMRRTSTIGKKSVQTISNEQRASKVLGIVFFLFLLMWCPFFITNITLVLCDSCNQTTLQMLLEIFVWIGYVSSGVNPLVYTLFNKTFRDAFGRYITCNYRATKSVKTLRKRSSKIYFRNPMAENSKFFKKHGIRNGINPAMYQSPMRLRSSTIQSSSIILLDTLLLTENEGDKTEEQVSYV
Sequence of α1A(h) (P35348 whole entry): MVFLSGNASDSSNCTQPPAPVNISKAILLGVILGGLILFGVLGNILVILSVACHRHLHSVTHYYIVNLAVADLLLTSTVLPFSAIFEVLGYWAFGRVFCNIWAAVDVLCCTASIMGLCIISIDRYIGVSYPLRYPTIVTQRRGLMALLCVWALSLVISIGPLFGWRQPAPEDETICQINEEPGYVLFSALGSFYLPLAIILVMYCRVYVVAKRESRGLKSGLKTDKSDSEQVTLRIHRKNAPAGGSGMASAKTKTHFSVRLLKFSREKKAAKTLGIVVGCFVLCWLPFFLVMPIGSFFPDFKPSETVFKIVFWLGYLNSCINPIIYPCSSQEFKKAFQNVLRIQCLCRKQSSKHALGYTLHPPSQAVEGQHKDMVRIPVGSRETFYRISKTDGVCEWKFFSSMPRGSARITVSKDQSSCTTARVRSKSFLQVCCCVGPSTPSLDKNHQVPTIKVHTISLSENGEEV
Sequence of M1(h) (P11229 whole entry): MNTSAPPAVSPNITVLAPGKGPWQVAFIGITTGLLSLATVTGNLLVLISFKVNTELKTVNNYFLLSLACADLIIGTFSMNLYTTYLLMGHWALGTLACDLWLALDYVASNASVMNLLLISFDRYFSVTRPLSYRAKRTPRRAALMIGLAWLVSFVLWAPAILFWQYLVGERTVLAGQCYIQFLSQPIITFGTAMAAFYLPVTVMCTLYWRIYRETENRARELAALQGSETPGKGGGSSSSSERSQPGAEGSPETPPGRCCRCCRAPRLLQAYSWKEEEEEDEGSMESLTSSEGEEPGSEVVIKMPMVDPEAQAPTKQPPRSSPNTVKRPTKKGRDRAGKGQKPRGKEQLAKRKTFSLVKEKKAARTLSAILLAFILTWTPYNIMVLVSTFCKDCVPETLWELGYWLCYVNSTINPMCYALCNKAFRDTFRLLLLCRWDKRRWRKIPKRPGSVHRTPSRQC
Sequence of D1(h) (P21728 whole entry): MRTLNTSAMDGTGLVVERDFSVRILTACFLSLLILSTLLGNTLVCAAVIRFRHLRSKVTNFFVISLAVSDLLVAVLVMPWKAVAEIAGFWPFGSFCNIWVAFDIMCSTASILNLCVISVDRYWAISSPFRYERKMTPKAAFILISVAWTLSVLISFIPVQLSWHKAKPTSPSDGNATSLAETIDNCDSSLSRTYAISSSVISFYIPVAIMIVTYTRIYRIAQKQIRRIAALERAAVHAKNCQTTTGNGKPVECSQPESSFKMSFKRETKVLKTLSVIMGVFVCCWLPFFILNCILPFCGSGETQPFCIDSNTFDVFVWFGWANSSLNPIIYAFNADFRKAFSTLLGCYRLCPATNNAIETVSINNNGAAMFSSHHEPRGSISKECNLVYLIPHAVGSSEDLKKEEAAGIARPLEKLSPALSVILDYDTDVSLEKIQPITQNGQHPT
Sequence of dopamine transporter(h) (Q01959 whole entry): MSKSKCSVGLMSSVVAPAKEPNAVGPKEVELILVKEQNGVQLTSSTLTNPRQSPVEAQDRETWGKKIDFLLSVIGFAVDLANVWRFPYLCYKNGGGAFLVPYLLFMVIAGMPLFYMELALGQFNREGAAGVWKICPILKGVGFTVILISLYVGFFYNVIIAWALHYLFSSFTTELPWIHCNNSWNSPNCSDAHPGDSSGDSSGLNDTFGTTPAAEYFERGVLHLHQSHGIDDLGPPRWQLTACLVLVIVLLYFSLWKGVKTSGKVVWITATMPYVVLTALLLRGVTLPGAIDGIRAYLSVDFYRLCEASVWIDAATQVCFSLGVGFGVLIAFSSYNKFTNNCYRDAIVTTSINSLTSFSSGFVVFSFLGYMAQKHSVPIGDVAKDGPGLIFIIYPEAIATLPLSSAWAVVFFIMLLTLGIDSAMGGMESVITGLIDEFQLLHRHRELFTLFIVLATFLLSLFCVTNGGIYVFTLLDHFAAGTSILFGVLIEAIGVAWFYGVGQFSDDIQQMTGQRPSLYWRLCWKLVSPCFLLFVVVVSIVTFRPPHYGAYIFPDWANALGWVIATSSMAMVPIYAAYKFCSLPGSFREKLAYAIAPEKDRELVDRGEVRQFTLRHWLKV
Sequence of 5-HT3(h) (P46098 24-478): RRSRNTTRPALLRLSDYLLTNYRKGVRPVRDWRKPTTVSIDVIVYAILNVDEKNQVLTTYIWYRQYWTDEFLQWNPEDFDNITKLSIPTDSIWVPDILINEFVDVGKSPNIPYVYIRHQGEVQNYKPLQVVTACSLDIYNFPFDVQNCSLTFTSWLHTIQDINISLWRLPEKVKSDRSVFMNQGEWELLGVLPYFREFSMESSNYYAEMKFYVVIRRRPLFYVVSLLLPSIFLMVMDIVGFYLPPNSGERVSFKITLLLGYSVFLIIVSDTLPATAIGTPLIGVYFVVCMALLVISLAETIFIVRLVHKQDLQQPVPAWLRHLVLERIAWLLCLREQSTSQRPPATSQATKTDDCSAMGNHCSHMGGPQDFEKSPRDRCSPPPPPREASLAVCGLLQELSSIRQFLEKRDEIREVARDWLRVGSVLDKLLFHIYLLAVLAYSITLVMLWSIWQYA

`CCOC(=O)c1ccc(NC2CCCCC2)c(N)c1` [Fer-1, ferrostatin-1] was tested, and the “7-AAD/annexin V flow cytometry, source data of bar graph Fig2i” value (NIH3T3 cells) was 7.78% and 9.49% and 6.87% and 10.1%.

For `CN1C(=O)C(Cc2c[nH]c3c(Cl)cccc23)NC1=S` (centres unmarked) [Nec-1f], the “CaOx crystal deposition vs vehicle” value (C57BL/6N mice; 1.65 mg/kg body weight) was “comparable in both groups”, the “Tubular injury vs vehicle” value (C57BL/6N mice; 1.65 mg/kg body weight) was “reduced tubular injury” and the Serum creatinine (C57BL/6N mice; [2]) was 75 µmol/L and 84 µmol/L and 73 µmol/L and 71 µmol/L and 67 µmol/L and 78 µmol/L and 89 µmol/L and 69 µmol/L. For the same compound, the Serum urea (C57BL/6N mice; [2]) was 70.6 mmol/L and 52 mmol/L and 57.6 mmol/L and 47.8 mmol/L and 51.8 mmol/L and 64.8 mmol/L and 59.8 mmol/L, the “Number of TUNEL-positive cells vs vehicle” value (C57BL/6N mice; CaOx) was “significantly decreased” and the “Serum creatinine vs vehicle” value (C57BL/6N mice; CaOx, 1.65 mg/kg) was “lower concentrations”. For the same compound, the “Serum urea vs vehicle” value (C57BL/6N mice; CaOx, 1.65 mg/kg) was “lower concentrations”, the TUNEL (C57BL/6N mice; kidneys 24 h after onset of CaOx treatment, Nec-1f, individual animals) was 12.5 positive cells per HPF and 23.5 positive cells per HPF and 14 positive cells per HPF and 17 positive cells per HPF and 9.5 positive cells per HPF and 16 positive cells per HPF and 15 positive cells per HPF and the “Tubular injury (PAS)” value (C57BL/6N mice; sodium oxalate, 1.65 mg/kg Nec-1f, individual animals, 1.65 mg/kg) was 5.4 % area per HPF and 19.2 % area per HPF and 9 % area per HPF and 17.2 % area per HPF and 7.8 % area per HPF and 11.7 % area per HPF and 12.7 % area per HPF. For the same compound, the inhibition at 10 µM (α1A(h)) was 4.8%, the inhibition at 10 µM (D1(h)) was 2.3% and the inhibition at 10 µM (H2(h)) was -27.4%. For the same compound, the inhibition at 10 µM (MAO-A) was 44.4%, the inhibition at 10 µM (M1(h)) was -7.3% and the inhibition at 10 µM (M3(h)) was -4.9%. The inhibition at 10 µM (5-HT1A(h)) was 9.1%, the inhibition at 10 µM (5-HT1B (h)) was -12.9% and the inhibition at 10 µM (5-HT2B(h)) was 16.7%. The inhibition at 10 µM (5-HT3(h)) was 10.4%, the “Ca2+ channel (L, dihydropyridine site) ($): inhibition of radioligand binding” value [1] was 40% and the “KV channel ($): inhibition of radioligand binding” value (KV channel) was 1.7%. It also gave an inhibition at 10 µM (dopamine transporter(h)) of 34.3%.
